Reference: US8686016B2, “Schweinfurthins and uses thereof” (The United States of America, as represented by the …, priority 2009, dated 2014)
Entries after “also recorded” stand apart in the source; their conditions may differ.

What was measured:
Format in all cases: cell-based, mouse
[1] = tested on: MPNST K16561 cells; test: XTT cell proliferation assay, K16561
Protocol: (§1) Establishment of NPcis MPNST cell lines: Mice were euthanized by CO2 asphyxiation and tumors were dissected. The tumor volume was measured. The tumor was then cut in half, and ½ fixed in 4% PFA. The other half was rinsed, then cut into 24 pieces of approximately equal size. Each piece was diced with a razor blade and placed in 1 well of a 24 well plate, along with 625 μL of Triple Express (Gibco, Grand Island, N.Y., USA) and 5 μL of recombinant DNAse (Roche, Indianapolis, Ind., USA). Tumors were triturated, then incubated at 37° C. in a 5% CO2 incubator for 2-5 hours, with an additional trituration halfway through incubation time. At the end of the incubation, tumor pieces were triturated again, and suspended cells were transferred to 1.5 mL eppendorf tubes. […] Both plates were monitored for cell growth, grown up to 10 cm plates, and frozen down in 10% DMSO. […]
(§2) XTT Cell Proliferation Assay: Cells were seeded into 96-well plates at a density of 2,000 cells/well and allowed to reattach overnight. Cells were treated with SA, synthetic analogs, camptothecin (NCI Chemotherapeutics Repository, Md., USA), or DMSO control at the indicated concentrations continuously for 48 hours followed by assay in the 96-well plate for relative viable cell number using the dye […] (XTT) and a Wallac-Victor 2 plate reader (Perkin-Elmer, Waltham, Mass., USA). […]

[2] = tested on: MPNST K14553 cells; test: XTT cell proliferation assay, K14553
Protocol: as §1, §2

[3] = tested on: phosphorylation of Ser 19 on myosin light chain 2 (MLC2); test: Phospho-myosin light chain 2 immunostaining, KR158; details: KR158 cells treated with SA and EGF
Protocol: Cell Morphology Assays and Confocal Microscopy: To assay cytoskeleton morphology, KR158 cells, mouse primary astrocytes, KR158 clones expressing the NF1-GRD constructs, K14553 cells, and A549 were seeded to cover slips and allowed to reattach overnight. Cells were treated for 18 hours with either the indicated concentrations of SA, or the vehicle control DMSO. The cover slips were fixed in 3.7% paraformaldehyde, permeablized in 0.1% Triton-X100, and stained with Alexa Fluor 488-phalloidin (Invitrogen, Carlsbad, Calif., USA) to detect actin and cells were mounted in Prolong Antifade containing DAPI (Invitrogen) to stain nuclei. The cells were imaged on a LSM510 confocal microscope (Carl Zeiss Inc., Jena, Germany). For phospho-myosin light chain 2 (MLC) detection, cells were seeded to coverslips as described above. Cells were serum starved in 0.5% FBS and SA or DMSO vehicle control for 18 hours, and then pulsed with 10 ng/mL EGF (Invitrogen) for 5 min. […] Actin structures were monitored continuously over a 16 hr period using confocal microscopy equipped with a growth chamber (37° C., humidified atmosphere and 5% CO2). […]

SMILES: CC(C)=CCC/C(C)=C/Cc1c(O)cc(/C=C/c2cc(O)c3c(c2)C[C@@H]2C(C)(C)[C@H](O)[C@H](O)C[C@@]2(C)O3)cc1O [SA, Schweinfurthin A]
- inhibition of proliferation (percent viability versus control) [1]: dose dependent inhibition of proliferation; also recorded: sensitive
- inhibition of proliferation (percent viability versus control) [2]: dose dependent inhibition of proliferation; also recorded: sensitive
- MLC phosphorylation (Ser 19) [3]: dose dependent decrease of MLC phosphorylation
